Data as given in US10851108B2, “Substituted bicyclic heterocyclic compounds” (BRISTOL-MYERS SQUIBB COMPANY, priority 2016, dated 2020).
pIC50: −log10 of the molar value.

These compounds were tested against hROMK (human Kir1.1) (Homo sapiens (Human), UniProt P48048) (assay: Thallium Flux Assay). Details: CHO T-Rex hROMK stable cell line, 10-point concentration response; read-out: hROMK Th+ Flux IC50.
Assay type: cell-based
Description: Solutions and reagents: Thallium flux assay was performed using FluxOR kit (F10017, Life Technologies). Loading buffer, assay buffer and stimulus buffer were prepared using kit components. HBSS (Hank's balanced salt solution, Cat #14025-092) was purchased separately from Life Technologies.
To prepare 10 ml of loading buffer: 10 μl of FluxOR dye (reconstituted in DMSO) was first added to 100 μl of powerload concentrate and this mix along with 100 μl of Probenicid (100×) was then added to 9.79 ml of HBSS. Assay buffer (10 ml) was prepared by addition of 2 ml of FluxOR chloride free buffer (5×), 100 μl of Probenicid (100×), and 0.2 ml of Ouabain (13.77 mM) to 7.7 ml of deionized water. Stimulus buffer was composed of 15 mM Tl2SO4, 0.75 mM K2SO4 in FluxOR chloride free buffer (diluted to 1× using deionized water). The final concentration of Tl2SO4 and K2SO4 in the assay plate was 3 mM and 0.15 mM, respectively.
Plating and induction of cells: The CHO T-Rex hROMK (human Kir1.1) stable cell line was maintained in Ham's F12 media supplemented with 10% FBS, 1% Penicillin-Streptomycin, 500 μg/ml Zeocin and 10 μg/ml Blasticidin at 37° C. in a 5% CO2 incubator. One day before the experiment, the cells were dissociated by incubation with Versene solution (15040-066, Life Technologies) for 10 minutes at 37° C. followed by addition of growth media. The cell suspension was centrifuged at 1200 rpm for 5 min. After discarding the supernatant, the cells were resuspended in fresh growth media and cell concentration was determined using a hemocytometer. Next, 0.5 μg/ml of Doxycycline was added to the cell suspension to induce hROMK channel expression and 50 μl (10,000 cells/well) of cell suspension was added to each well of a poly-D lysine coated 384 well black, optically clear bottom plate (6007718, Perkin Elmer). The assay plate was kept at 37° C. in a 5% CO2 incubator.
Assay protocol: On the day of experiment, media was removed and loading buffer was added (30 μl/well) to the assay plate. The cells were incubated in the loading buffer for 30 minutes at 37° C. The loading buffer was then replaced by assay buffer (30 μl/well) followed by addition of test compounds or controls. The cells were incubated with compounds for 30 minutes and the plate was then mounted on FlexStation (Molecular Devices) for fluorescence read out with excitation and emission wavelengths at 488 and 525 nm, respectively. Each well was read for 90 sec at 2 sec interval and the stimulus buffer was added after 20 seconds of baseline recording. The final DMSO concentration was either 0.5 or 1% in the assay plate. […] controls were defined by addition of DMSO or 3 μM of a standard ROMK inhibitor, respectively, to the wells instead of a test compound.
A 10-point concentration response curve was used to estimate the IC50 value of test compounds.
The data in Table 3 is reported with two significant figures.

Chain of hROMK (human Kir1.1) (P48048 whole entry): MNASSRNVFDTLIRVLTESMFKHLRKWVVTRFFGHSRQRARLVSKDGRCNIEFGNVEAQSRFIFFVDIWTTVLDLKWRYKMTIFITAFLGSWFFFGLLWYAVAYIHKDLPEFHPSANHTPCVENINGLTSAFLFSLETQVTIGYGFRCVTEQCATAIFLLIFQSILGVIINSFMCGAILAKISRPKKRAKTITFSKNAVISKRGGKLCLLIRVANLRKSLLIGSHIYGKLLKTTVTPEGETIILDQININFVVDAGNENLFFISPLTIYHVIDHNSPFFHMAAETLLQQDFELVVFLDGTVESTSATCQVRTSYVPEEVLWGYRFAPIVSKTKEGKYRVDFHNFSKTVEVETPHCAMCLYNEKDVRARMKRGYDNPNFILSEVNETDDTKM

SMILES | pIC50
Cc1c(CN2CCc3cc(Nc4ccc(C#N)c(F)c4)ccc3C2)ccc2c1COC2=O [Example 30, 2-fluoro-4-((2-((4-methyl-1-oxo-1,3-dihydroisobenzofuran-5-yl)methyl)-1,2,3,4-tetrahydroisoquinolin-6-yl)amino)benzonitrile] | 6.09
Cc1c(C(O)CN2CCc3nc(-n4ncc5c(C#N)cncc54)ncc3C2)ccc2c1COC2=O (single isomer, unassigned) [Example 43-II, 1-(6-(2-hydroxy-2-(4-methyl-1-oxo-1,3-dihydroisobenzofuran-5-yl)ethyl)-5,6,7,8-tetrahydropyrido[4,3-d]pyrimidin-2-yl)-1H-pyrazolo[3,4-c]pyridine-4-carbonitrile] | 6.19
Cc1c(CN2CCc3nc(-n4ccc5cc(C#N)ccc54)ncc3C2)ccc2c1COC2=O [Example 21, 1-(6-((4-methyl-1-oxo-1,3-dihydro-isobenzofuran-5-yl)methyl)-5,6,7,8-tetrahydropyrido[4,3-d]pyrimidin-2-yl)-1H-indole-5-carbonitrile] | 5.49
Cc1c(C(CO)N2CCc3nc(-n4cc(C#N)c5ccccc54)ncc3C2)ccc2c1COC2=O (single isomer, unassigned) [Example 9-II, 1-(6-(2-hydroxy-1-(4-methyl-1-oxo-1,3-dihydroisobenzofuran-5-yl)ethyl)-5,6,7,8-tetrahydropyrido[4,3-d]pyrimidin-2-yl)-1H-indole-3-carbonitrile] | 5.74
Cc1c(CN2CCc3cc(Nc4ccn5nccc5n4)ccc3C2)ccc2c1COC2=O [Example 38, 4-methyl-5-((6-(pyrazolo[1,5-a]pyrimidin-5-ylamino)-3,4-dihydroisoquinolin-2(1H)-yl)methyl)isobenzofuran-1(3H)-one] | 5.72
N#Cc1ccc(Nc2ncc3c(n2)CCN(Cc2ccc4c(c2)COC4=O)C3)cc1F [Example 2] | 6.02
Cc1c(CN2CCc3nc(-n4ccc5c(C#N)cccc54)ncc3C2)ccc2c1COC2=O [Example 20, 1-(6-((4-methyl-1-oxo-1,3-dihydro-isobenzofuran-5-yl)methyl)-5,6,7,8-tetrahydropyrido[4,3-d]pyrimidin-2-yl)-1H-indole-4-carbonitrile] | 5.82
Cc1c(C(O)CN2CCc3nc(N4CCc5c(C#N)cccc54)ncc3C2)ccc2c1COC2=O (single isomer, unassigned) [Example 65-II, 1-(6-(2-hydroxy-2-(4-methyl-1-oxo-1,3-dihydroisobenzofuran-5-yl)ethyl)-5,6,7,8-tetrahydropyrido[4,3-d]pyrimidin-2-yl)indoline-4-carbonitrile] | 6.42
Cc1c(C(CO)N2CCc3cc(Nc4ccc(C#N)c(F)c4)ccc3C2)ccc2c1COC2=O (single isomer, unassigned) [Example 33-II, 2-fluoro-4-((2-(2-hydroxy-1-(4-methyl-1-oxo-1,3-dihydroisobenzofuran-5-yl)ethyl)-1,2,3,4-tetrahydroisoquinolin-6-yl)amino) benzonitrile] | 5.74
Cc1c(CN2CCc3nc(N(C)c4ccc(C#N)c(F)c4)ncc3C2)ccc2c1COC2=O [Example 47, 2-fluoro-4-(methyl(6-((4-methyl-1-oxo-1,3-dihydroisobenzofuran-5-yl)methyl)-5,6,7,8-tetrahydropyrido[4,3-d]pyrimidin-2-yl)amino) benzonitrile] | 5.72

More lines, now with the values ahead:

pIC50 | SMILES
6.10 | Cc1c(C(O)CN2CCc3nc(-n4ncc5c(C#N)ccnc54)ncc3C2)ccc2c1COC2=O (single isomer, unassigned) [Example 35-I, 1-(6-(2-hydroxy-2-(4-methyl-1-oxo-1,3-dihydroisobenzofuran-5-yl)ethyl)-5,6,7,8-tetrahydropyrido[4,3-d]pyrimidin-2-yl)-1H-pyrazolo[3,4-b]pyridine-4-carbonitrile]
6.34 | Cc1c(C(O)CN2CCc3nc(-n4ccc5c(C#N)ccnc54)ncc3C2)ccc2c1COC2=O (single isomer, unassigned) [Example 19-I, 1-(6-(2-hydroxy-2-(4-methyl-1-oxo-1,3-dihydroisobenzofuran-5-yl)ethyl)-5,6,7,8-tetrahydropyrido[4,3-d]pyrimidin-2-yl)-1H-pyrrolo[2,3-b]pyridine-4-carbonitrile]
5.82 | Cc1cc(Nc2ncc3c(n2)CCN(Cc2ccc4c(c2C)COC4=O)C3)ncc1C#N [Example 31, 4-methyl-6-((6-((4-methyl-1-oxo-1,3-dihydroisobenzofuran-5-yl)methyl)-5,6,7,8-tetrahydropyrido[4,3-d]pyrimidin-2-yl)amino) nicotinonitrile]
5.92 | N#Cc1ccc2c(cnn2-c2ncc3c(n2)CCN(Cc2ccc4c(c2)COC4=O)C3)c1 [Example 11, 1-(6-((1-oxo-1,3-dihydroisobenzofuran-5-yl)methyl)-5,6,7,8-tetrahydropyrido[4,3-d]pyrimidin-2-yl)-1H-indazole-5-carbonitrile]
5.74 | Cc1c(CN2CCc3nc(Nc4ccc5oc(=O)n(C)c5c4)ncc3C2)ccc2c1COC2=O [Example 49, 3-methyl-5-((6-((4-methyl-1-oxo-1,3-dihydroisobenzofuran-5-yl)methyl)-5,6,7,8-tetrahydropyrido[4,3-d]pyrimidin-2-yl)amino) benzo[d]oxazol-2(3H)-one]
5.91 | Cc1c(C(O)CN2CCc3nc(Nc4ccc(-n5cnnn5)cn4)ncc3C2)ccc2c1COC2=O (single isomer, unassigned) [Example 63-I, 5-(2-(2-((5-(1H-tetrazol-1-yl)pyridine-2-yl)amino)-7,8-dihydropyrido[4,3-d]pyrimidin-6(5H)-yl)-1-hydroxyethyl)-4-methylisobenzofuran-1(3H)-one]
5.34 | Cc1c(N2CCc3cc(NCc4ccc(C#N)c(F)c4)ccc3C2)ccc2c1COC2=O [Example 10, 2-fluoro-4-(((2-(4-methyl-1-oxo-1,3-dihydroisobenzofuran-5-yl)-1,2,3,4-tetrahydroisoquinolin-6-yl)amino)methyl)benzonitrile]
5.52 | Cc1c(C(CO)N2CCc3nc(Nc4ccc(C#N)c(F)c4)ncc3C2)ccc2c1COC2=O (single isomer, unassigned) [Example 29-I, 2-fluoro-4-((6-(2-hydroxy-1-(4-methyl-1-oxo-1,3-dihydroisobenzofuran-5-yl)ethyl)-5,6,7,8-tetrahydropyrido [4,3-d]pyrimidin-2-yl)amino)benzonitrile]
6.70 | Cc1c(CCN2CCc3nc(Nc4ccc(C#N)c(F)c4)ncc3C2)ccc2c1COC2=O [Example 27, 2-fluoro-4-((6-(2-(4-methyl-1-oxo-1,3-dihydroisobenzofuran-5-yl)ethyl)-5,6,7,8-tetrahydropyrido[4,3-d]pyrimidin-2-yl)amino) benzonitrile]
5.83 | Cc1c(C(O)CN2CCc3nc(-n4cnc5cccnc54)ncc3C2)ccc2c1COC2=O (single isomer, unassigned) [Example 55-I, 5-(2-(2-(3H-imidazo[4,5-b]pyridin-3-yl)-7,8-dihydropyrido[4,3-d]pyrimidin-6(5H)-yl)-1-hydroxyethyl)-4-methylisobenzofuran-1(3H)-one]
5.72 | Cc1c(C(O)CN2CCc3nc(-n4ccc5c(C#N)ccnc54)ncc3C2)ccc2c1COC2=O (single isomer, unassigned) [Example 19-II, 1-(6-(2-hydroxy-2-(4-methyl-1-oxo-1,3-dihydroisobenzofuran-5-yl)ethyl)-5,6,7,8-tetrahydropyrido[4,3-d]pyrimidin-2-yl)-1H-pyrrolo[2,3-b]pyridine-4-carbonitrile]
5.92 | Cc1c(C(O)CN2CCc3nc(-n4ncc5ncccc54)ncc3C2)ccc2c1COC2=O (single isomer, unassigned) [Example 41-II, 5-(2-(2-(1H-pyrazolo[4,3-b]pyridin-1-yl)-7,8-dihydropyrido[4,3-d]pyrimidin-6(5H)-yl)-1-hydroxyethyl)-4-methylisobenzofuran-1(3H)-one]
5.33 | Cc1c(C(CO)N2CCc3nc(-n4ccc5cc(C#N)cnc54)ncc3C2)ccc2c1COC2=O (single isomer, unassigned) [Example 45-I, 1-(6-(2-hydroxy-1-(4-methyl-1-oxo-1,3-dihydroisobenzofuran-5-yl)ethyl)-5,6,7,8-tetrahydropyrido[4,3-d]pyrimidin-2-yl)-1H-pyrrolo[2,3-b]pyridine-5-carbonitrile]
